Patent US11834460B2, “Imide-based modulators of proteolysis and associated methods of use” (YALE UNIVERSITY, priority 2018, dated 2023)

Each compound was assayed on c-Myc (assay: c-Myc ELISA assay protocol in 22RV-1 cells). Conditions: 18 h, read-out: cMyc IC50.
Format: cell-based, human
Method: In each bioassay, cells were treated with varying amounts of compounds encompassed by the present disclosure, as shown in Table 1. The degradation of the following proteins were evaluated in this study: TANK-binding kinase 1 (TBK1), estrogen receptor α (ERα), bromodomain-containing protein 4 (BRD4), androgen receptor (AR), and c-Myc.
5. c-Myc ELISA Assay Protocol
22RV-1 cells were purchased from ATCC and cultured in RPMI+10% FBS media. Cells were harvested using trypsin (Gibco #25200-114), counted and seeded at 30,000 cells/well at a volume of 75 μL/well in RPMI +10% FBS media in 96-well plates. The cells were dosed with compounds diluted in 0.1% DMSO, incubated for 18 h then washed and lysed in 50 uL RIPA buffer (50 mM Tris pH8, 150 mM NaCl, 1% Tx-100, 0.1% SDS, 0.5% sodium deoxycholate) supplemented with protease and phosphatase inhibitors. The lysates were clarified at 4000 rpm at 4° C. for 10 minutes then aliquots were added into a 96-well ELISA plate of Novex Human c-myc ELISA kit from Life Technologies Catalog #KHO2041. 50 ul of c-Myc Detection antibody was added into every well, the plates incubated at room temperature for 3 hrs, then washed with ELISA wash buffer. 100 uL of the anti-rabbit IgG-HRP secondary antibody was added to each well and incubated at room temperature for 30 minutes. The plates were washed with ELISA wash buffer, 100 μL TMB added to each well, and then monitored every 5 minutes for a color change. 100 μL of stop solution is added and the plates read at 450 nm.

Row | SMILES | IC50 [µM]
1 | Cc1sc2c(c1C)C(c1ccc(Cl)cc1)=N[C@@H](CC(=O)NCCCNc1cccc3c1CN(C1CCC(=O)NC1=O)C3=O)c1nnc(C)n1-2 (stereo partly drawn) [Compound 46, 2-[(9S)-7-(4-chlorophenyl)-4,5,13-trimethyl-3-thia-1,8,11,12-tetraazatricyclo [8.3.0.0^2,^6]trideca-2(6),4,7,10,12-pentaen-9-yl]-N-(3-{[2-(2,6-dioxopiperidin-3-yl)-1-oxo-2,3-dihydro-1H-isoindol-4-yl]amino}propyl) acetamide] | > 0.05
2 | Cc1sc2c(c1C)C(c1ccc(Cl)cc1)=N[C@@H](CC(=O)N[C@@H](C)c1ccc(-c3ncc(OCCOCCNc4cccc5c4C(=O)N(C4CCC(=O)NC4=O)C5=O)cn3)cc1)c1nnc(C)n1-2 (stereo partly drawn) [Compound 36, 2-[(9S)-7-(4-chlorophenyl)-4,5,13-trimethyl-3-thia-1,8,11,12-tetraazatricyclo [8.3.0.0^2,^6]trideca-2(6),4,7,10,12-pentaen-9-yl]-N-[(1S)-1-(4-{5-[2-(2-{[2-(2,6-dioxopiperidin-3-yl)-1,3-dioxo-2,3-dihydro-1H-isoindol-4-yl]amino}ethoxy)ethoxy]pyrimidin-2-yl}phenyl)ethyl] acetamide] | < 0.05
3 | Cc1sc2c(c1C)C(c1ccc(Cl)cc1)=N[C@@H](CC(=O)N[C@@H](C)c1ccc(OCCOCCNc3cccc4c3C(=O)N(C3CCC(=O)NC3=O)C4=O)c(F)c1)c1nnc(C)n1-2 (stereo partly drawn) [Compound 48, 2-[(9S)-7-(4-chlorophenyl)-4,5,13-trimethyl-3-thia-1,8,11,12-tetraazatricyclo [8.3.0.0^2,^6]trideca-2(6),4,7,10,12-pentaen-9-yl]-N-[(1S)-1-{4-[2-(2-{[2-(2,6-dioxopiperidin-3-yl)-1,3-dioxo-2,3-dihydro-1H-isoindol-4-yl]amino}ethoxy)ethoxy]-3-fluorophenyl}ethyl]acetamide] | < 0.05
4 | Cc1sc2c(c1C)C(c1ccc(Cl)cc1)=N[C@@H](CC(=O)Nc1ccc(OCCOCCOCCOCCNc3cccc4c3C(=O)N(C3(C)CCC(=O)NC3=O)C4=O)cc1)c1nnc(C)n1-2 (stereo partly drawn) [Compound 49, 2-[(9S)-7-(4-chlorophenyl)-4,5,13-trimethyl-3-thia-1,8,11,12-tetraazatricyclo [8.3.0.0^2,^6]trideca-2(6),4,7,10,12-pentaen-9-yl]-N-[4-({1-[2-(3-methyl-2,6-dioxopiperidin-3-yl)-1,3-dioxo-2,3-dihydro-1H-isoindol-4-yl]-4,7,10-trioxa-1-azadodecan-12-yl}oxy)phenyl] acetamide] | > 0.05
5 | Cc1sc2c(c1C)C(c1ccc(Cl)cc1)=N[C@H](CC(=O)Nc1ccc(OCCOCCOCCOCCNc3cccc4c3CN(C3CCC(=O)NC3=O)C4=O)cc1)c1nnc(C)n1-2 (stereo partly drawn) [Compound 35, 2-((9R)-7-(4-chlorophenyl)-4,5,13-trimethyl-3-thia-1,8,11,12-tetraazatricyclo [8.3.0.02,6]trideca-2(6),4,7,10, 12-pentaen-9-yl)-N-(4-((1-(2-(2,6-dioxopiperidin-3-yl)-1-oxo-2,3-dihydro-1H-isoindol-4-yl)-4,7,10-trioxa-1-azadodecan-12-yl)oxy)phenyl) acetamide] | < 0.05
6 | Cc1sc2c(c1C)C(c1ccc(Cl)cc1)=N[C@@H](CC(=O)Nc1ccc(OCCOCCOCCNc3cccc4nc(C)n(C5CCC(=O)NC5=O)c(=O)c34)cc1)c1nnc(C)n1-2 (stereo partly drawn) [Compound 56, 2-[(9S)-7-(4-chlorophenyl)-4,5,13-trimethyl-3-thia-1,8,11,12-tetraazatricyclo [8.3.0.0^2,^6]trideca-2(6),4,7,10,12-pentaen-9-yl]-N-(4-{2-[2-(2-{[3-(2,6-dioxopiperidin-3-yl)-2-methyl-4-oxo-3,4-dihydroquinazolin-5-yl]amino}ethoxy)ethoxy]ethoxy}phenyl)acetamide] | < 0.05
7 | Cc1sc2c(c1C)C(c1ccc(Cl)cc1)=N[C@@H](CC(=O)NCCOCCNc1cccc3c1C(=O)N(C1CCC(=O)NC1=O)C3=O)c1nnc(C)n1-2 (stereo partly drawn) [Compound 27, 2-((9S)-7-(4-chlorophenyl)-4,5,13-trimethyl-3-thia-1,8,11,12-tetraazatricyclo [8.3.0.02,6]trideca-2(6),4,7,10,12-pentaen-9-yl)-N-(2-(2-((2-(2,6-dioxopiperidin-3-yl)-1,3-dioxo-2,3-dihydro-1H-isoindol-4-yl)amino)ethoxy)ethyl)acetamide] | < 0.05
8 | Cc1sc2c(c1C)C(c1ccc(Cl)cc1)=N[C@@H](CC(=O)N[C@@H](C)c1ccc(OCCCCNc3cccc4c3C(=O)N(C3CCC(=O)NC3=O)C4=O)cc1)c1nnc(C)n1-2 (stereo partly drawn) [Compound 23, 2-((9S)-7-(4-chlorophenyl)-4,5,13-trimethyl-3-thia-1,8,11,12-tetraazatricyclo [8.3.0.02,6]trideca-2(6),4,7,10, 12-pentaen-9-yl)-N-((1S)-1-(4-(4-((2-(2,6-dioxopiperidin-3-yl)-1,3-dioxo-2,3-dihydro-1H-isoindol-4-yl)amino)butoxy)phenyl)ethyl) acetamide] | > 0.05
9 | Cc1nnc2n1C1=C(C(c3ccc(Cl)cc3)=N[C@H]2CC(=O)NCCCCCNc2cccc3c2C(=O)N(C2CCC(=O)NC2=O)C3=O)C(C)C(C)S1 (stereo partly drawn) [Compound 45, 2-[(9S)-7-(4-chlorophenyl)-4,5,13-trimethyl-3-thia-1,8,11,12-tetraazatricyclo [8.3.0.0^2,^6]trideca-2(6),4,7,10,12-pentaen-9-yl]-N-(5-{[2-(2,6-dioxopiperidin-3-yl)-1,3-dioxo-2,3-dihydro-1H-isoindol-4-yl]amino}pentyl) acetamide] | < 0.05
10 | Cc1sc2c(c1C)C(c1ccc(Cl)cc1)=N[C@@H](CC(=O)NCCCOCCCNc1cccc3nc(C)n(C4CCC(=O)NC4=O)c(=O)c13)c1nnc(C)n1-2 (stereo partly drawn) [Compound 58, 2-[(9S)-7-(4-chlorophenyl)-4,5,13-trimethyl-3-thia-1,8,11,12-tetraazatricyclo [8.3.0.0^2,^6]trideca-2(6),4,7,10,12-pentaen-9-yl]-N-[3-(3-{[3-(2,6-dioxopiperidin-3-yl)-2-methyl-4-oxo-3,4-dihydroquinazolin-5-yl]amino}propoxy)propyl]acetamide] | > 0.05
11 | Cc1sc2c(c1C)C(c1ccc(Cl)cc1)=N[C@@H](CC(=O)N[C@H]1CCN(C(=O)c3ccc(OCCNc4cccc5c4C(=O)N(C4CCC(=O)NC4=O)C5=O)cc3)C1)c1nnc(C)n1-2 (stereo partly drawn) [Compound 55, 2-[(9S)-7-(4-chlorophenyl)-4,5,13-trimethyl-3-thia-1,8,11,12-tetraazatricyclo [8.3.0.0^2,^6]trideca-2(6),4,7,10,12-pentaen-9-yl]-N-[(3S)-1-[4-(2-{[2-(2,6-dioxopiperidin-3-yl)-1,3-dioxo-2,3-dihydro-1H-isoindol-4-yl]amino}ethoxy)benzoyl]pyrrolidin-3-yl]acetamide] | < 0.05

The remaining lines, values ahead:

Row | IC50 [µM] | SMILES
12 | > 0.05 | Cc1sc2c(c1C)C(c1ccc(Cl)cc1)=N[C@@H](CC(=O)N[C@H](C)c1cccc(OCCNc3cccc4c3CN(C3CCC(=O)NC3=O)C4=O)c1)c1nnc(C)n1-2 (stereo partly drawn) [Compound 60, 2-[(9S)-7-(4-chlorophenyl)-4,5,13-trimethyl-3-thia-1,8,11,12-tetraazatricyclo [8.3.0.0^2,^6]trideca-2(6),4,7,10,12-pentaen-9-yl]-N-[(1R)-1-[3-(2-{[2-(2,6-dioxopiperidin-3-yl)-1-oxo-2,3-dihydro-1H-isoindol-4-yl]amino}ethoxy)phenyl]ethyl] acetamide]
13 | > 0.05 | Cc1sc2c(c1C)C(c1ccc(Cl)cc1)=N[C@@H](CC(=O)N[C@H](C)c1cccc(OCCCNc3cccc4c3CN(C3CCC(=O)NC3=O)C4=O)c1)c1nnc(C)n1-2 (stereo partly drawn) [Compound 51, 2-[(9S)-7-(4-chlorophenyl)-4,5,13-trimethyl-3-thia-1,8,11,12-tetraazatricyclo [8.3.0.0^2,^6]trideca-2(6),4,7,10,12-pentaen-9-yl]-N-[(1R)-1-[3-(3-{[2-(2,6-dioxopiperidin-3-yl)-1-oxo-2,3-dihydro-1H-isoindol-4-yl]amino}propoxy)phenyl]ethyl] acetamide]
14 | < 0.05 | Cc1sc2c(c1C)C(c1ccc(Cl)cc1)=N[C@@H](CC(=O)N[C@@H](C)c1ccc(OCCOCCNc3cccc4c3CN(C3CCC(=O)NC3=O)C4=O)cc1)c1nnc(C)n1-2 (some centres unmarked) [Compound 42]
15 | < 0.05 | Cc1sc2c(c1C)C(c1ccc(Cl)cc1)=N[C@@H](CC(=O)N[C@H](C)c1ccc(OCCCNc3cccc4c3C(=O)N(C3CCC(=O)NC3=O)C4=O)cc1)c1nnc(C)n1-2 (stereo partly drawn) [Compound 30, 2-((9S)-7-(4-chlorophenyl)-4,5,13-trimethyl-3-thia-1,8,11,12-tetraazatricyclo [8.3.0.02,6]trideca-2(6),4,7,10, 12-pentaen-9-yl)-N-((1R)-1-(4-(3-((2-(2,6-dioxopiperidin-3-yl)-1,3-dioxo-2,3-dihydro-1H-isoindol-4-yl)amino)propoxy)phenyl)ethyl) acetamide]
16 | < 0.05 | Cc1sc2c(c1C)C(c1ccc(Cl)cc1)=N[C@@H](CC(=O)N[C@H](C)c1ccc(OCCOCCNc3cccc4c3CN(C3CCC(=O)NC3=O)C4=O)cc1)c1nnc(C)n1-2 (some centres unmarked) [Compound 38]
17 | < 0.05 | Cc1sc2c(c1C)C(c1ccc(Cl)cc1)=N[C@@H](CC(=O)NCCCCCNc1cccc3c1CN(C1CCC(=O)NC1=O)C3=O)c1nnc(C)n1-2 (stereo partly drawn) [Compound 57, 2-[(9S)-7-(4-chlorophenyl)-4,5,13-trimethyl-3-thia-1,8,11,12-tetraazatricyclo [8.3.0.0^2,^6]trideca-2(6),4,7,10,12-pentaen-9-yl]-N-(5-{[2-(2,6-dioxopiperidin-3-yl)-1-oxo-2,3-dihydro-1H-isoindol-4-yl]amino}pentyl) acetamide]
